Measured values reported in the supplement of paper PMC11208160.

Assay: recombinant barcode read abundance after kanamycin selection (control-corrected) (log10(CPM+1)); higher = more efficient recombination; sequences stand for … in AGTGCAGAGAAAATCGGCCAGTTTTCTCTGCCTGCAGTCCGCATGCCGT…AGATTTATGCAGCGGACTGCCTTTCTCCCAAAGTGATAAACCGGACAGTATCATGGACCGGTTTTCCCGGTAATCCGTATTTGCAAGGTTGGTTTCACT; site = the 11-nt target
Procedure, shortened: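 Reported as log10(CPM+1), each value stands for recombination efficiency. That efficiency is the averaged, control-corrected counts per million of barcodes found at recombinant junctions. Cells from a pooled E. coli library pairing targets with IS621 bridge RNA target-binding loops were plated twice on chloramphenicol/ampicillin LB agar (control) and twice on chloramphenicol/ampicillin/kanamycin with 0.1 mM IPTG.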
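Further: IS621 recombinase and bridge RNA in Escherichia coli cells.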

Sequence | recombinant barcode read abundance (log10)
GGAATGTCTTGGGTTCTAACCTGTTGCCT (site GCAATGTCTAG) | 0.0847
GGAATGTCTTGGGTTCTAACCTGTTGCCT (site GGAATGTCTAG) | 2.09
GGAATGTCTTGGGTTCTAACCTGTTGCCT (site GTAATGTCTAG) | 0.0368
GGAATTCCTTGGGTTCTAACCTGTTGCCT (site GGAATACCTAG) | 0.129
GGAATTCCTTGGGTTCTAACCTGTTGCCT (site GGAATCCCTAG) | 0
GGAATTCCTTGGGTTCTAACCTGTTGCCT (site GGAATGCCTAG) | 0.0669
GGAATTCCTTGGGTTCTAACCTGTTGCCT (site GGAATTCCTAG) | 0.0376
GGACAATCTTGGGTTCTAACCTGTTGCCT (site GGACAATCTAG) | 1.53
GGACAATCTTGGGTTCTAACCTGTTGCCT (site GGACCATCTAG) | 0.174
GGACAATCTTGGGTTCTAACCTGTTGCCT (site GGACGATCTAG) | 0.376
GGACAATCTTGGGTTCTAACCTGTTGCCT (site GGACTATCTAG) | 0.0608
GGACATGCTTGGGTTCTAACCTGTTGCGT (site CGACATACTAC) | 0.219
GGACATGCTTGGGTTCTAACCTGTTGCGT (site GGACATGCTAC) | 2.7
GGACCGCCTTGGGTTCTAACCTGTTGCCT (site CGATCGCCTAG) | 0.129
GGACCGCCTTGGGTTCTAACCTGTTGCCT (site GGACCGCCTAG) | 0.626
GGACGAGCTTGGGTTCTAACCTGTTGCTG (site ATCTATACTAG) | 0.0905
GGACGAGCTTGGGTTCTAACCTGTTGCTG (site GGACGAGCTCA) | 2.46
GGACGGACTTGGGTTCTAACCTGTTGCCA (site GGACGGACTTG) | 1.68
GGACGGACTTGGGTTCTAACCTGTTGCCA (site GGTCGGACTTG) | 0.417
GGACTATCTTGGGTTCTAACCTGTTGCCT (site GGACAATCTAG) | 0.104
GGACTATCTTGGGTTCTAACCTGTTGCCT (site GGACCATCTAG) | 0.297
GGACTATCTTGGGTTCTAACCTGTTGCCT (site GGACGATCTAG) | 0.011

Sequence | recombinant barcode read abundance (log10)
GGACTATCTTGGGTTCTAACCTGTTGCCT (site GGACTATCTAG) | 1.18
GGACTCACTTGGGTTCTAACCTGTTGCCT (site GGACTCACTAG) | 1.77
GGACTCACTTGGGTTCTAACCTGTTGCCT (site GGATTCTCTAG) | 0.15
GGAGAACCTTGGGTTCTAACCTGTTGCCT (site AGAGAACCTAG) | 1.85
GGAGAACCTTGGGTTCTAACCTGTTGCCT (site CGAGAACCTAG) | 0.492
GGAGAACCTTGGGTTCTAACCTGTTGCCT (site GGAGAACCTAG) | 2.48
GGAGAACCTTGGGTTCTAACCTGTTGCCT (site TGAGAACCTAG) | 1.56
GGAGAGGCTTGGGTTCTAACCTGTTGCCT (site GGAGAAGCTAG) | 0.893
GGAGAGGCTTGGGTTCTAACCTGTTGCCT (site GGAGACGCTAG) | 0.143
GGAGAGGCTTGGGTTCTAACCTGTTGCCT (site GGAGAGGCTAG) | 1.54
GGAGAGGCTTGGGTTCTAACCTGTTGCCT (site GGAGATGCTAG) | 0.0967
GGAGATGCTTGGGTTCTAACCTGTTGCCT (site GGAGAAGCTAG) | 0.783
GGAGATGCTTGGGTTCTAACCTGTTGCCT (site GGAGACGCTAG) | 0.291
GGAGATGCTTGGGTTCTAACCTGTTGCCT (site GGAGAGGCTAG) | 0.226
GGAGATGCTTGGGTTCTAACCTGTTGCCT (site GGAGATGCTAG) | 1.74
GGAGCAGCTTGGGTTCTAACCTGTTGCCT (site GGAGCACCTAG) | 0.223
GGAGCAGCTTGGGTTCTAACCTGTTGCCT (site GGAGCAGCTAG) | 1.16
GGAGCCTCTTGGGTTCTAACCTGTTGCTC (site GGAGCCTCTGA) | 1.7
GGAGCCTCTTGGGTTCTAACCTGTTGCTC (site GGGGCCTCTCA) | 0.177
GGAGCTCCTTGGGTTCTAACCTGTTGCCG (site ACTCACACTAA) | 0.152
GGAGCTCCTTGGGTTCTAACCTGTTGCCG (site GGAGCTCCTCG) | 0.846
